target: T1, human TRPA1 (Homo sapiens, UniProt O75762); assay: TRPA1 FLIPR Tetra calcium influx assay in CHO cells (block of cinnamaldehyde-induced calcium influx); format: cell-based; details: Table 1; CHO cells expressing TRPA1; agonist cinnamaldehyde 75 uM; with vs without substituent at R2/R3; read-out: hTRPA1 CHO Ca2+ AUC EVO (IC50)
T1 construct: expressed in transfected cells; host or cells: CHO cells
Procedure, shortened: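 CHO cells expressing TRPA1 were loaded with calcium dye in HBSS/20 mM HEPES, pH 7.4, 0.02% BSA, then given compound for 20 min at room temperature before ~EC80 cinnamaldehyde (75 µM human, 45 µM rat). Block of calcium influx was read on FLIPR Tetra; IC50 fitted with Hill coefficient fixed at 1.5.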

T1 sequence (O75762 whole entry): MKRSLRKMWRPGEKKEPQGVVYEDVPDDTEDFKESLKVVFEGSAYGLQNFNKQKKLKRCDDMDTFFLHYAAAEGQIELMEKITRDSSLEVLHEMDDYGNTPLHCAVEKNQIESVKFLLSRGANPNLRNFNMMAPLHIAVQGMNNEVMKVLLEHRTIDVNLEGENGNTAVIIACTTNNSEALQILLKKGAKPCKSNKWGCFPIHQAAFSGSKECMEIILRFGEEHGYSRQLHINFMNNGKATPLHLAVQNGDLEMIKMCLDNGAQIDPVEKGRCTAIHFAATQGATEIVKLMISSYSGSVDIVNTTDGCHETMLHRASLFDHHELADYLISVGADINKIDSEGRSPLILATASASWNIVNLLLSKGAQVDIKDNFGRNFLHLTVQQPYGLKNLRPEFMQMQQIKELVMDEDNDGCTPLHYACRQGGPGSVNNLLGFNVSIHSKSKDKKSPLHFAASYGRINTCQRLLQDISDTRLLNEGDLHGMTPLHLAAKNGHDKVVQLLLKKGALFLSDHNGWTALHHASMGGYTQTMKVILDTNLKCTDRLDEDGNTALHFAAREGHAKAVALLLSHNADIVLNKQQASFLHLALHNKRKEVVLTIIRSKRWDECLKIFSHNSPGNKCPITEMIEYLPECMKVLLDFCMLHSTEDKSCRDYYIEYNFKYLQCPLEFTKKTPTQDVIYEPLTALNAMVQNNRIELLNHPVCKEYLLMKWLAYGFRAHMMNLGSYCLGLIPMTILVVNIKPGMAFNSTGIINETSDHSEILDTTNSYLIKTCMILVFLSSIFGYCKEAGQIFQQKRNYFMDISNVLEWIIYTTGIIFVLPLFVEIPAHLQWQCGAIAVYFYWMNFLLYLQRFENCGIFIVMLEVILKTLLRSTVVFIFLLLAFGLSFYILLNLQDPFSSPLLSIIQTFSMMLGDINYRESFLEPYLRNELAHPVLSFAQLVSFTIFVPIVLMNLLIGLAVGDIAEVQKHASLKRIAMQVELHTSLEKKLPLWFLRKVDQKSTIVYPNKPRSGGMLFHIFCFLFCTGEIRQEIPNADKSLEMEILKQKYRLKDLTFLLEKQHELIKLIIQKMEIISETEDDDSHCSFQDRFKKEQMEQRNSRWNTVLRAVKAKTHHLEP

Q: How did the IC50 turn out when `C[C@H]1[C@H](F)C[C@@H](C(=O)NCc2cc(-c3cnc(C(F)(F)F)nc3)ncn2)N1S(=O)(=O)c1ccc(F)cc1` [drawing 602, (2S,4R,5S)-4-fluoro-1-(4-fluorophenyl)sulfonyl-5-methyl-N-[[6-[2-(trifluoromethyl)pyrimidin-5-yl]pyrimidin-4-yl]methyl]pyrrolidine-2-carboxamide] was run?
A: Its IC50 is 21.9 nM.

Q: `C[C@H]1[C@H](F)C[C@@H](C(=O)NCc2cc(-c3cnc(C(F)(F)F)nc3)c(Cl)cn2)N1S(=O)(=O)c1ccc(F)cc1` [drawing 604, (2S,4R,5S)-N-[[5-chloro-4-[2-(trifluoromethyl)pyrimidin-5-yl]-2-pyridyl]methyl]-4-fluoro-1-(4-fluorophenyl)sulfonyl-5-methyl-pyrrolidine-2-carboxamide] was tested. Which IC50 did it give?
A: Its IC50 is 4.31 nM.

same assay, conditions: Table 2; CHO cells expressing TRPA1; agonist cinnamaldehyde 75 uM; 20 min compound incubation; Hill coefficient fixed to 1.5; read-out: hTRPA1 CHO Ca2+ AUC EVO (IC50)

Q: Which IC50 does the source give for `O=C(NCc1cc(-c2cnc(C(F)(F)F)nc2)ncn1)[C@@H]1C[C@@H]2C[C@@H]2N1S(=O)(=O)c1ccc(F)cc1` [Example 18, (1S,3S,5S)-2-(4-fluorophenyl)sulfonyl-N-[[6-[2-(trifluoromethyl)pyrimidin-5-yl]pyrimidin-4-yl]methyl]-2-azabicyclo[3.1.0]hexane-3-carboxamide] here?
A: Its IC50 is 29.8 nM.

Q: With `C[C@H]1[C@H](F)C[C@@H](C(=O)NCc2cc(-c3cnc(C(F)(F)F)nc3)ncc2F)N1S(=O)(=O)c1cc2cc(F)ccc2o1` [Example 154, (2S,4R,5S)-4-fluoro-1-(5-fluorobenzofuran-2-yl)sulfonyl-N-[[5-fluoro-2-[2-(trifluoromethyl)pyrimidin-5-yl]-4-pyridyl]methyl]-5-methyl-pyrrolidine-2-carboxamide] as the compound, how does the IC50 read?
A: The IC50 was 0.89 nM.

Q: With `C[C@H]1[C@H](F)C[C@@H](C(=O)NCc2cc(-c3cnc(C(F)(F)F)nc3)ncc2F)N1S(=O)(=O)c1cccc(F)c1` [Example 41, (2S,4R,5S)-4-fluoro-N-((5-fluoro-2-(2-(trifluoromethyl)pyrimidin-5-yl)pyridin-4-yl)methyl)-1-(3-fluorophenylsulfonyl)-5-methylpyrrolidine-2-carboxamide] as the compound, how does the IC50 read?
A: Its IC50 is 40.5 nM.

Q: For `C[C@H]1[C@H](F)C[C@@H](C(=O)NCc2cc(-c3cnc(C(F)(F)F)nc3)cnc2C(F)(F)F)N1S(=O)(=O)c1ccc(F)cc1` [Example 152, (2S,4R,5S)-4-fluoro-1-(4-fluorophenyl)sulfonyl-5-methyl-N-[[2-(trifluoromethyl)-5-[2-(trifluoromethyl)pyrimidin-5-yl]-3-pyridyl]methyl]pyrrolidine-2-carboxamide], which IC50 is on record?
A: Its IC50 is 3.03 nM.

Q: Which IC50 does the source give for `C[C@H]1[C@H](F)C[C@@H](C(=O)N(COP(=O)(O)O)Cc2cc(-c3cnc(C(F)(F)F)nc3)ncc2F)N1S(=O)(=O)c1ccc(F)cc1` [Example 157, Sodium ((2S,4R,5S)-4-fluoro-N-((5-fluoro-2-(2-(trifluoromethyl)pyrimidin-5-yl)pyridin-4-yl)methyl)-1-((4-fluorophenyl)sulfonyl)-5-methylpyrrolidine-2-carboxamido)methyl phosphate] here?
A: The IC50 was 1200 nM.

Q: Which IC50 does the source give for `C[C@H]1[C@H](F)C[C@@H](C(=O)NCc2cc(-c3cnc(C(F)(F)F)s3)ncc2F)N1S(=O)(=O)c1ccc(F)cc1` [Example 93, (2S,4R,5S)-4-fluoro-1-(4-fluorophenyl)sulfonyl-N-[[5-fluoro-2-[2-(trifluoromethyl)thiazol-5-yl]-4-pyridyl]methyl]-5-methyl-pyrrolidine-2-carboxamide] here?
A: Its IC50 is 5.38 nM.

Q: How did the IC50 turn out when `C[C@H]1[C@H](F)C[C@@H](C(=O)NCc2cc(OC[C@@H]3C[C@H]3C(F)(F)F)nc(C3CC3)n2)N1S(=O)(=O)c1ccc(F)cc1` [Example 132, (2S,4R,5S)-N-[[2-cyclopropyl-6-[[(1R,2R)-2-(trifluoromethyl)cyclopropyl]methoxy]pyrimidin-4-yl]methyl]-4-fluoro-1-(4-fluorophenyl)sulfonyl-5-methyl-pyrrolidine-2-carboxamide] was run?
A: Its IC50 is 15.2 nM.

Q: With `C[C@H]1[C@H](F)C[C@@H](C(=O)NCc2cc([C@H]3CC[C@H](C(F)(F)F)CC3)ncc2F)N1S(=O)(=O)c1ccc(F)cc1` [Example 55, (2S,4R,5S)-4-fluoro-1-(4-fluorophenyl)sulfonyl-N-[[5-fluoro-2-[4-(trifluoromethyl)cyclohexyl]-4-pyridyl]methyl]-5-methyl-pyrrolidine-2-carboxamide] as the compound, how does the IC50 read?
A: The IC50 was 5.89 nM.

Q: With `C[C@H]1[C@H](F)C[C@@H](C(=O)NCc2cc(-c3cnc(C(F)(F)F)nc3)c(C#N)cn2)N1S(=O)(=O)c1ccc(F)cc1` [Example 86, (2S,4R,5S)-N-[[5-cyano-4-[2-(trifluoromethyl)pyrimidin-5-yl]-2-pyridyl]methyl]-4-fluoro-1-(4-fluorophenyl)sulfonyl-5-methyl-pyrrolidine-2-carboxamide] as the compound, how does the IC50 read?
A: Its IC50 is 124 nM.

Q: Which IC50 does the source give for `C[C@H]1[C@H](F)C[C@@H](C(=O)NCc2cc(-c3cnc(C(F)(F)F)nc3)c(C3CC3)cn2)N1S(=O)(=O)c1ccc(F)cc1` [Example 49, (2S,4R,5S)-N-[[5-cyclopropyl-4-[2-(trifluoromethyl)pyrimidin-5-yl]-2-pyridyl]methyl]-4-fluoro-1-(4-fluorophenyl)sulfonyl-5-methyl-pyrrolidine-2-carboxamide] here?
A: Its IC50 is 36.7 nM.

Q: Which IC50 does the source give for `C[C@H]1[C@H](F)C[C@@H](C(=O)NCc2cc(-c3ccc(C(F)(F)F)cn3)ccn2)N1S(=O)(=O)c1ccc(F)cc1` [Example 31, (2S,4R,5S)-4-fluoro-1-(4-fluorophenylsulfonyl)-5-methyl-N-((5-(trifluoromethyl)-2,4′-bipyridin-2′-yl)methyl)pyrrolidine-2-carboxamide] here?
A: The IC50 was 58.7 nM.

Q: For `C[C@H]1[C@H](F)C[C@@H](C(=O)NCc2cn([C@H]3CC[C@H](C(F)(F)F)CC3)nc2C(F)(F)F)N1S(=O)(=O)c1ccc(F)cc1` [Example 50, (2S,4R,5S)-4-fluoro-1-(4-fluorophenyl)sulfonyl-5-methyl-N-[[3-(trifluoromethyl)-1-[4-(trifluoromethyl)cyclohexyl]pyrazol-4-yl]methyl]pyrrolidine-2-carboxamide], which IC50 is on record?
A: Its IC50 is 50.5 nM.

Q: With `O=C(NCc1cc(-c2cnc(C(F)(F)F)nc2)ncc1F)[C@H]1[C@@H]2C[C@@H]2CN1S(=O)(=O)c1ccc(F)cc1` (stereo in doubt) [Example 79, (1S,4R,5R)-3-(4-fluorophenyl)sulfonyl-N-[[5-fluoro-2-[2-(trifluoromethyl)pyrimidin-5-yl]-4-pyridyl]methyl]-3-azabicyclo[3.1.0]hexane-4-carboxamide] as the compound, how does the IC50 read?
A: Its IC50 is 14.6 nM.

Q: How did the IC50 turn out when `C[C@H]1[C@H](F)C[C@@H](C(=O)NCc2cc(Cl)nc(-c3cnc(C(F)(F)F)nc3)c2)N1S(=O)(=O)c1ccc(F)cc1` [Example 10, (2S,4R,5S)-N-[[2-chloro-6-[2-(trifluoromethyl)pyrimidin-5-yl]-4-pyridyl]methyl]-4-fluoro-1-(4-fluorophenyl)sulfonyl-5-methyl-pyrrolidine-2-carboxamide] was run?
A: The IC50 was 2.26 nM.

Q: How did the IC50 turn out when `O=C(NCc1cc(-c2cnc(C(F)(F)F)nc2)ncc1F)[C@@H]1C[C@@H]2C[C@@H]2N1S(=O)(=O)c1ccc(F)cc1` [Example 15, (1S,3S,5S)-2-(4-fluorophenyl)sulfonyl-N-[[5-fluoro-2-[2-(trifluoromethyl)pyrimidin-5-yl]-4-pyridyl]methyl]-2-azabicyclo[3.1.0]hexane-3-carboxamide] was run?
A: The IC50 was 0.6 nM.

Q: `O=C(NCc1cc(-c2cnc(C(F)(F)F)nc2)ncc1F)[C@@H]1[C@@H]2[C@H](CN1S(=O)(=O)c1ccc(F)cc1)C2(F)F` [Example 71, (1S,2S,5R)-6,6-difluoro-N-((5-fluoro-2-(2-(trifluoromethyl)pyrimidin-5-yl)pyridin-4-yl)methyl)-3-((4-fluorophenyl)sulfonyl)-3-azabicyclo[3.1.0]hexane-2-carboxamide] was tested. Which IC50 did it give?
A: Its IC50 is 46.2 nM.

Q: With `C[C@H]1[C@H](F)C[C@@H](C(=O)NCc2cc(-c3cnc(C(F)(F)F)nc3)c(OC(F)(F)F)cn2)N1S(=O)(=O)c1ccc(F)cc1` [Example 106, (2S,4R,5S)-4-fluoro-1-(4-fluorophenyl)sulfonyl-5-methyl-N-[[5-(trifluoromethoxy)-4-[2-(trifluoromethyl)pyrimidin-5-yl]-2-pyridyl]methyl]pyrrolidine-2-carboxamide] as the compound, how does the IC50 read?
A: Its IC50 is 2.2 nM.

Q: How did the IC50 turn out when `C[C@H]1[C@H](F)C[C@@H](C(=O)NCc2cc(-c3cnc(C(F)(F)F)nc3)ccc2F)N1S(=O)(=O)c1ccc(F)cc1` [Example 14, (2S,4R,5S)-4-fluoro-1-(4-fluorophenyl)sulfonyl-N-[[2-fluoro-5-[2-(trifluoromethyl)pyrimidin-5-yl]phenyl]methyl]-5-methyl-pyrrolidine-2-carboxamide] was run?
A: The IC50 was 2.14 nM.

Q: `C[C@H]1CC[C@@H](C(=O)NCc2cc(-c3cnc(C(F)(F)F)nc3)ncn2)N1S(=O)(=O)c1ccc(F)cc1` [Example 19, (2S,5S)-1-(4-fluorophenyl)sulfonyl-5-methyl-N-[[6-[2-(trifluoromethyl)pyrimidin-5-yl]pyrimidin-4-yl]methyl]pyrrolidine-2-carboxamide] was tested. Which IC50 did it give?
A: The IC50 was 5.22 nM.

Q: `C[C@H]1[C@H](F)C[C@@H](C(=O)NCc2cc([C@H]3C[C@H](OC(F)(F)F)C3)ncc2F)N1S(=O)(=O)c1ccc(F)cc1` [Example 140, (2S,4R,5S)-4-fluoro-1-(4-fluorophenyl)sulfonyl-N-[[5-fluoro-2-[3-(trifluoromethoxy)cyclobutyl]-4-pyridyl]methyl]-5-methyl-pyrrolidine-2-carboxamide] was tested. Which IC50 did it give?
A: Its IC50 is 3.56 nM.

Q: How did the IC50 turn out when `O=C(NCc1cc(-c2cnc(C(F)(F)F)nc2)ncc1F)[C@@H]1[C@H]2C[C@H]2CN1S(=O)(=O)c1ccc(F)cc1` (single isomer, unassigned) [Example 68] was run?
A: Its IC50 is 14.6 nM.

Q: With `C[C@H]1[C@H](F)C[C@@H](C(=O)NCc2cc(-c3cnc(C(F)(F)F)nc3)ncc2F)N1S(=O)(=O)c1ccc(Cl)c(Cl)c1` (stereo in doubt) [Example 92, (2S,4R,5S)-1-(3,4-dichlorophenyl)sulfonyl-4-fluoro-N-[[5-fluoro-2-[2-(trifluoromethyl)pyrimidin-5-yl]-4-pyridyl]methyl]-5-methyl-pyrrolidine-2-carboxamide] as the compound, how does the IC50 read?
A: The IC50 was 8.69 nM.

— patent publication US10179782B2, “Substituted sulfonamide compounds” (Genentech, Inc., priority 2016, dated 2019)
